Experimental data taken from ChEMBL document CHEMBL4390668, “Discovery and Structural Optimization of Acridones as Broad-Spectrum Antimalarials” (J Med Chem, 2019).
Active and inactive are the calls of the source. No cut-off for these calls is given here.

Experiments:
[1] = test system: Plasmodium falciparum; test: Antimalarial activity against chloroquine-sensitive Plasmodium falciparum D6 infected in human erythrocytes by SYBR green 1-based fluorescence assay; format: functional, organism-based
[2] = test system: Plasmodium falciparum; test: Antimalarial activity against multidrug-resistant Plasmodium falciparum Dd2 infected in human erythrocytes by SYBR green 1-based fluorescence assay; format: functional, organism-based
[3] = test system: Plasmodium falciparum; test: Antimalarial activity against multidrug-resistant Plasmodium falciparum 7G8 infected in human erythrocytes by SYBR green 1-based fluorescence assay; format: functional, organism-based
[4] = test system: Plasmodium falciparum; test: Antimalarial activity against atovaquone-resistant Plasmodium falciparum Tm90-C2B infected in human erythrocytes by SYBR green 1-based fluorescence assay; format: functional, organism-based
[5] = test system: HepG2; test: Cytotoxicity against human HepG2 cells measured after 24 to 36 hrs by resazurin dye based fluorescence assay; format: cell-based
[6] = Selectivity index, ratio of IC50 for human HepG2 cells to IC50 for chloroquine-sensitive Plasmodium falciparum D6 infected in human erythrocytes; format: toxicity, cell-based; settings: read-out: Ratio IC50
[7] = test system: Plasmodium berghei; test: Antimalarial activity against luciferase-expressing Plasmodium berghei ANKA 676m1cl1 sporozoites infected in human HepG2A16 cells measured after 45 hrs by luciferase-luciferin based reporter assay; format: functional, organism-based; settings: ANKA 676m1cl1, HepG2A16, 45 h
[8] = Half life in human liver microsomes at 1 uM by LC-MS analysis; format: ADME, Microsome
[9] = Half life in mouse liver microsomes at 1 uM by LC-MS analysis; format: ADME, Microsome
[10] = test system: Plasmodium falciparum; test: Antimalarial activity against drug-resistant Plasmodium falciparum Dd2 harboring V259L mutant infected in human erythrocytes after 72 hrs by SYBR green 1-based fluorescence assay; format: functional, organism-based; settings: Dd2, 72 h
[11] = test system: Plasmodium falciparum; test: Antimalarial activity against drug-resistant Plasmodium falciparum Dd2 harboring M133I/A138T double mutant infected in human erythrocytes after 72 hrs by SYBR green 1-based fluorescence assay; format: functional, organism-based; settings: Dd2, 72 h
[12] = test system: Plasmodium falciparum; test: Antimalarial activity against Plasmodium falciparum 3D7 infected in human erythrocytes after 72 hrs by SYBR green 1-based fluorescence assay; format: functional, organism-based; settings: 3D7, 72 h
[13] = test system: Plasmodium falciparum; test: Antimalarial activity against drug-resistant Plasmodium falciparum 3D7 harboring A82T/V259L double mutant infected in human erythrocytes after 72 hrs by SYBR green 1-based fluorescence assay; format: functional, organism-based; settings: 3D7, 72 h
[14] = test system: Plasmodium falciparum; test: Inhibition of Plasmodium falciparum cytochrome b-c1

Compound: CCCN(CCC)CCOc1ccc2c(=O)c3ccc(Cl)cc3[nH]c2c1
- IC50 [1]: 2.5 nM
- IC50 [2]: 11 nM
- IC50 [3]: 9.1 nM
- IC50 [4]: 1540 nM
- IC50 [5]: 40600 nM
- selectivity ratio [6]: 16300
- IC50 [7]: 14.8 nM
- half-life at 1 µM [8]: > 60 min
- half-life at 1 µM [9]: > 60 min

Compound: CCN(CC)CCCCCOc1ccc2c(=O)c3ccc(Cl)cc3[nH]c2c1
- IC50 [1]: 540 nM
- IC50 [2]: 511 nM
- IC50 [4]: 1040 nM
- IC50 [5]: 31300 nM
- selectivity ratio [6]: 58
- IC50 [7]: 202 nM
- half-life at 1 µM [8]: > 60 min
- half-life at 1 µM [9]: > 60 min

Compound: O=c1c2ccc(Cl)cc2[nH]c2cc(OCCN3CCCC3)ccc12
- IC50 [1]: 529 nM
- IC50 [2]: 781 nM
- IC50 [3]: 959 nM
- IC50 [4]: 1500 nM
- IC50 [5]: 25500 nM
- selectivity ratio [6]: 48
- IC50 [7]: 456 nM

Compound: CCN(CC)CCOc1ccc2c(=O)c3cc(Cl)ccc3[nH]c2c1
- IC50 [2]: 351 nM
- IC50 [3]: 304 nM
- IC50 [4]: 1160 nM
- IC50 [5]: > 100000 nM
- selectivity ratio [6]: > 473
- IC50 [7]: 221 nM

Compound: CCCN(CCC)CCOc1ccc2c(=O)c3c(Cl)cc(OC)cc3[nH]c2c1
- IC50 [1]: 0.65 nM
- IC50 [2]: 4.2 nM
- IC50 [3]: 6.2 nM
- IC50 [4]: 81 nM
- IC50 [5]: > 200000 nM
- selectivity ratio [6]: > 308000
- IC50 [7]: 2.9 nM
- half-life at 1 µM [8]: 7 min
- half-life at 1 µM [9]: 10 min

Compound: O=c1c2ccc(OCCCC(F)(F)F)cc2[nH]c2cc(F)cc(F)c12
- IC50 [1]: 0.027 nM
- IC50 [2]: 0.033 nM
- IC50 [3]: 0.5 nM
- IC50 [4]: 40 nM
- IC50 [5]: > 200000 nM
- selectivity ratio [6]: > 200000
- IC50 [7]: 48 nM
- half-life at 1 µM [8]: > 60 min
- half-life at 1 µM [9]: 59 min

Compound: CCCN(CCC)CCOc1ccc2c(=O)c3cc(Cl)ccc3[nH]c2c1
- IC50 [1]: 3.6 nM
- IC50 [2]: 15 nM
- IC50 [3]: 9.2 nM
- IC50 [4]: 317 nM
- IC50 [5]: > 100000 nM
- selectivity ratio [6]: > 27800
- IC50 [7]: 12.5 nM
- half-life at 1 µM [8]: 12 min
- half-life at 1 µM [9]: 16 min

Compound: CCN(CC)CCOc1ccc2c(=O)c3ccc(Br)cc3[nH]c2c1
- IC50 [1]: 25 nM
- IC50 [2]: 34 nM
- IC50 [3]: 37 nM
- IC50 [4]: 968 nM
- IC50 [5]: > 40000 nM
- selectivity ratio [6]: > 1600
- IC50 [7]: 100 nM
- half-life at 1 µM [8]: > 60 min
- half-life at 1 µM [9]: > 60 min

Compound: O=c1c2ccc(OCCCCCl)cc2[nH]c2cc(F)cc(F)c12
- IC50 [1]: 0.12 nM
- IC50 [2]: 0.16 nM
- IC50 [3]: 0.5 nM
- IC50 [4]: 40 nM
- IC50 [5]: > 100000 nM
- selectivity ratio [6]: > 100000
- IC50 [7]: 17 nM
- half-life at 1 µM [8]: 14 min
- half-life at 1 µM [9]: 6 min

Compound: O=c1c2ccc(OCCCCl)cc2[nH]c2ccc(Cl)c(Cl)c12
- IC50 [1]: 3.2 nM
- IC50 [2]: 17 to 22 nM
- IC50 [3]: 3.1 nM
- IC50 [4]: 1040 nM
- IC50 [5]: > 100000 nM
- selectivity ratio [6]: > 31200
- IC50 [10]: 551 nM
- IC50 [11]: 324 nM
- IC50 [12]: 11.1 nM
- IC50 [13]: 605 nM
- inhibition [14]: inactive

Compound: CC(C)(C)NCCOc1ccc2c(=O)c3c(Cl)c(Cl)ccc3[nH]c2c1
- IC50 [1]: 106 nM
- IC50 [2]: 139 to 679 nM
- IC50 [3]: 295 nM
- IC50 [4]: > 2500 nM
- IC50 [5]: 38400 nM
- selectivity ratio [6]: 362
- IC50 [10]: 3070 nM
- inhibition [14]: inactive

Compound: CCCN(CCC)CCOc1ccc2[nH]c3cc(F)cc(F)c3c(=O)c2c1
- IC50 [1]: 0.4 nM
- IC50 [2]: 1 nM
- IC50 [3]: 3.2 nM
- IC50 [4]: 270 nM
- IC50 [5]: 20200 nM
- selectivity ratio [6]: 50600
- IC50 [7]: 0.75 nM

Compound: CCN(CC)CCCC(C)Nc1ccnc2cc(Cl)ccc12 (centres undefined) [CHLOROQUINE]
- IC50 [10]: 260 nM
- inhibition [14]: inactive

Compound: CCN(CC)CCOc1ccc2c(=O)c3ccccc3[nH]c2c1
- IC50 [1]: 1350 nM
- IC50 [2]: 1190 nM
- IC50 [4]: 2530 nM
- IC50 [5]: 96800 nM
- selectivity ratio [6]: 72
- IC50 [7]: 503 nM

Compound: CCN(CC)CCOc1ccc2c(=O)c3ccc(F)cc3[nH]c2c1
- IC50 [1]: 377 nM
- IC50 [2]: 485 nM
- IC50 [3]: 353 nM
- IC50 [4]: 1670 nM
- IC50 [5]: 47900 nM
- selectivity ratio [6]: 127
- IC50 [7]: 119 nM
- half-life at 1 µM [8]: > 60 min
- half-life at 1 µM [9]: > 60 min

Compound: O=c1c2ccc(OCCCCl)cc2[nH]c2cc(Cl)cc(Cl)c12
- IC50 [1]: 2.2 nM
- IC50 [2]: 2.9 nM
- IC50 [3]: 6.6 nM
- IC50 [4]: 70 nM
- IC50 [5]: > 100000 nM
- selectivity ratio [6]: > 45500
- IC50 [7]: 523 nM
- half-life at 1 µM [8]: > 60 min
- half-life at 1 µM [9]: 55 min

Compound: CC(C)(C)NCCCCOc1ccc2c(=O)c3c(F)cc(F)cc3[nH]c2c1
- IC50 [1]: 75 nM
- IC50 [2]: 265 nM
- IC50 [3]: 14 nM
- IC50 [4]: > 2500 nM
- IC50 [5]: 101000 nM
- selectivity ratio [6]: 1350
- IC50 [7]: 362 nM
- half-life at 1 µM [8]: > 60 min
- half-life at 1 µM [9]: > 60 min

Compound: CCN(CC)CCCOc1ccc2c(=O)c3ccc(Cl)cc3[nH]c2c1
- IC50 [1]: 272 nM
- IC50 [2]: 254 nM
- IC50 [3]: 294 nM
- IC50 [4]: 1890 nM
- IC50 [5]: 19700 nM
- selectivity ratio [6]: 72
- IC50 [7]: 436 nM
- half-life at 1 µM [8]: > 60 min
- half-life at 1 µM [9]: 34 min

Compound: CCCN(CCC)CCOc1ccc2[nH]c3cc(OC)cc(F)c3c(=O)c2c1
- IC50 [1]: 0.7 nM
- IC50 [2]: 0.13 nM
- IC50 [3]: 0.42 nM
- IC50 [4]: 47 nM
- IC50 [5]: 26400 nM
- selectivity ratio [6]: 37700
- IC50 [7]: 0.65 nM

Compound: O=c1c2ccc(OCCCl)cc2[nH]c2ccc(Cl)c(Cl)c12
- IC50 [1]: 2.5 nM
- IC50 [2]: 27 nM
- IC50 [3]: 45 nM
- IC50 [4]: 1380 nM
- IC50 [5]: > 100000 nM
- selectivity ratio [6]: > 40000
- IC50 [7]: 183 nM
- half-life at 1 µM [8]: > 60 min
- half-life at 1 µM [9]: > 60 min

Compound: O=c1c2ccc(OCCNC34CC5CC(CC(C5)C3)C4)cc2[nH]c2ccc(Cl)c(Cl)c12
- IC50 [1]: 30 nM
- IC50 [2]: 77 to 390 nM
- IC50 [3]: 176 nM
- IC50 [4]: 163 nM
- IC50 [5]: 10000 nM
- selectivity ratio [6]: 333
- IC50 [7]: 86 nM
- IC50 [10]: 1100 nM
- inhibition [14]: inactive

Compound: CN1CCCC1CCOc1ccc2c(=O)c3c(Cl)c(Cl)ccc3[nH]c2c1 (centres undefined)
- IC50 [1]: 48 nM
- IC50 [2]: 172 to 616 nM
- IC50 [3]: 440 nM
- IC50 [4]: 368 nM
- IC50 [5]: 47600 nM
- selectivity ratio [6]: 992
- IC50 [10]: 3110 nM
- inhibition [14]: inactive

Compound: O=c1c2ccc(OCCN3CCOCC3)cc2[nH]c2ccc(Cl)c(Cl)c12
- IC50 [1]: 65 nM
- IC50 [2]: 38 nM
- IC50 [3]: 273 nM
- IC50 [4]: 196 nM
- IC50 [5]: > 100000 nM
- selectivity ratio [6]: > 1540
